Results as given in patent publication US20260347322A1, “BETA ADRENERGIC AGONIST AND METHODS OF USING THE SAME” (CuraSen Therapeutics, Inc., priority 2019, published 2026).

Assays:
Type in all cases: cell-based
[1] = tested on: Endogenous beta-adrenergic receptor, 1321N1 cells; test: cAMP homogeneous time-resolved fluorescence (HTRF) assay, endogenous receptor; settings: 30 min, 37 °C
Method: (§1) CAMP homogeneous time-resolved fluorescence (HTRF): experimental methods. Compound efficacy is determined using the CAMP Gs dynamic HTRF assay (Cisbio, catalog #62AM4PEC) largely following the manufacturer's instructions, also detailed below.
Compound Preparation: Candidate beta-adrenergic compounds, dissolved to 10 mM in DMSO, are diluted in 1× stimulation buffer 1 (Cisbio Part #64Sβ1FDD) containing 1 mM 3-Isobutyl-1-methylxanthene (IBMX; Cayman Chemical Company, catalog #13347). Serial dilutions are made in a 96 well V-bottom polypropylene compound microplate (Corning, catalog #3363) in stimulation buffer containing 1 mM IBMX, to 2× of the final desired concentration. Standard serial dilution curves are 10-point, 5-fold dilutions starting from a highest concentration of 10 μM. Controls present on every assay plate are 0.1% DMSO (vehicle control), 1 μM isoproterenol (full beta-adrenergic agonist control) and 15 μM xamoterol (partial beta-adrenergic agonist control). 5 μL from the 2× compound plate is stamped into a white 384 round well small volume HiBase assay plate (Greiner Bio-One; catalog #784075) to provide 4 technical replicates per concentration, per compound. Assay plates are centrifuged at 500×g for 10 seconds. Compounds and IBMX are prepared at 2× final dose to compensate for addition of cells.
Cell Preparation: 1× stimulation buffer, washing PBS (Dulbecco's phosphate-buffered saline, —Mg—Ca; Caisson Labs, catalog #PBL01), assay PBS (Dulbecco's phosphate-buffered saline, +Mg, +Ca; Caisson Labs, catalog #PBL02) and Versene (0.02% EDTA disodium salt solution in PBS without calcium or magnesium; Caisson Labs, catalog #EDL01) are pre-warmed to 37 °C Cells expressing beta-adrenergic receptor were washed in washing PBS to remove growth medium and then released from the surface by incubating with Versene for 5-10 minutes at 37 °C. Cells are harvested using assay PBS, counted manually by hemocytometer or by an automated cell counter, pelleted by centrifugation (200×g, 5 minutes) and resuspended in 37 °C. 1× stimulation buffer to a final density of 1.5×10^6 cells/mL. […]
HTRF Reagent Addition, Reading and Data Analysis: After 30 minutes of cell stimulation with test compound, the assay plates are centrifuged at 500×g for 10 seconds, and incubation was stopped with the addition of 5 μL cAMP-D2 acceptor, diluted 1:21 in detection and lysis buffer 2 (Cisbio 62CL2FDF) was added to all cells. […] Plates are centrifuged again at 500×g for 10 seconds, and HTRF was measured using a Tecan Spark plate reader at 50 flashes per well. HTRF ratios (665 nm/620 nm×10,000) are determined and plotted in GraphPad Prism to generate a concentration-effect curve. […]

[2] = biological target: T1, B1-AR (β1 adrenergic receptor) (Homo sapiens, UniProt P08588); test: cAMP homogeneous time-resolved fluorescence (HTRF) assay, β1
T1 construct: expressed in transfected cells
T1 sequence (P08588 whole entry): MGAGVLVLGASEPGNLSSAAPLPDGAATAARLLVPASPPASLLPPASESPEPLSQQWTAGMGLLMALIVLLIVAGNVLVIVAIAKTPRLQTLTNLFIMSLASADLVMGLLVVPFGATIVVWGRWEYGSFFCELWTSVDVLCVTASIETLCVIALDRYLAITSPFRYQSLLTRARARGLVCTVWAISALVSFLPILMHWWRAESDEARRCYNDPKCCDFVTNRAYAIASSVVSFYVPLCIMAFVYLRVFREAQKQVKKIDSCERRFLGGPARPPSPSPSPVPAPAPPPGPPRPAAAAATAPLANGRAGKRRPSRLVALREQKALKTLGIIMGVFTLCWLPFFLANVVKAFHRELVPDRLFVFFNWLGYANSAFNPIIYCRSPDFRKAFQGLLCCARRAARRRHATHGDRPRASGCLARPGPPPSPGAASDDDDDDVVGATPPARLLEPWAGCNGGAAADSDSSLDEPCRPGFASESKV
Method: as §1
(§2) Standard serial dilution curves are 10-point, 5-fold dilutions starting from a highest concentration of 10 μM. […] Assay plates are centrifuged at 500×g for 10 seconds. Compounds and IBMX are prepared at 2× final dose to compensate for addition of cells. […]
(§3) Subsequently, 5 μL Anti-cAMP-Eu Donor, diluted 1:21 in detection and lysis buffer 2, was added to cells. […] Plates are centrifuged again at 500×g for 10 seconds, and HTRF was measured using a Tecan Spark plate reader at 50 flashes per well. […] Potency estimates (EC50 and pEC50) are derived from the four-parameter nonlinear regression of the concentration-effect curve and an estimate of relative efficacy is determined by comparing the magnitude of the test compound HTRF signal window (min-max dose) with the signal window of the full agonist control, isoproterenol.

[3] = biological target: T2, B2-AR (β2 adrenergic receptor) (Homo sapiens, UniProt P07550); test: cAMP homogeneous time-resolved fluorescence (HTRF) assay, β2
T2 construct: expressed in transfected cells
T2 sequence (P07550 whole entry): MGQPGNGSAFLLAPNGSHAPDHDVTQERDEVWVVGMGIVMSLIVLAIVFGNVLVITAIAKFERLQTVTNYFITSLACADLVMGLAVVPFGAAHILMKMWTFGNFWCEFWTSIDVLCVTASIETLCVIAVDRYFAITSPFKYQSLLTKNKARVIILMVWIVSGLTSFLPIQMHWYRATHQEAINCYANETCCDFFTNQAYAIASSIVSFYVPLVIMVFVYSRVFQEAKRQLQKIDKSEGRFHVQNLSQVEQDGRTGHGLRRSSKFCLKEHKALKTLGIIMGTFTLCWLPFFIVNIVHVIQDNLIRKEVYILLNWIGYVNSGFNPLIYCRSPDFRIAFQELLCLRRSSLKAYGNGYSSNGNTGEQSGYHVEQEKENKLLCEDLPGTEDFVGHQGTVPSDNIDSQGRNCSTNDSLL
Method: as §1, §2, §3

| SMILES | Average pEC50 [Receptor subtype: Endogenous; Cell type: 1321N1] [1] | EC50 [2] | EC50 [3] |
| --- | --- | --- | --- |
| CC(C)(C)NC[C@H](O)c1cnc(N)c(Cl)c1 [Compound 02-1] | C (C =< 7-6) | – | – |
| CC(C)(C)NC[C@@H](O)c1cccc(N)n1 [Compound 02-6] | C (C =< 7-6) | – | – |
| CC(C)(C)NC[C@H](O)c1cccc(O)n1 [Compound 02-7] | D (D < 6) | – | – |
| CC(C)(C)NC[C@@H](O)c1cccc(O)n1 [Compound 02-8] | D (D < 6) | – | – |
| CC(C)(C)NC[C@H](O)c1cncc2[nH]ncc12 [Compound 04-153] | – | > 1000 nM | 10 to 100 nM |
